Experimental data published in PMC5467912, “Asymmetric regulation of quorum-sensing receptors drives autoinducer-specific gene expression programs in Vibrio cholerae” (PLoS Genetics, 2017).
Several values for one entry are separate records, joined by “and”; a condition that tells them apart may be missing. Equal values may be shown once. Read-outs that look alike come from different tables or passages of the source.

Tests used:
Type in all cases: cell-based
CqsS = conditions: for CqsS Dimers / Relative dimers, Final experimental replicates / Relative dimers (CqsS, normalized to WT Ave): LuxS-CqsA-, AI-2 1 μM, CAI-1 5 μM; for CqsS Dimers / Relative dimers (CqsS, normalized to WT Ave): single replicates
[1] = system: QS-controlled luxCDABE operon; conditions: for RLU: PluxPQ-CqsS::3XFLAG LuxS-CqsA-
hapA = system: hapA
qrr4 = system: qrr4
[2] = system: QS-controlled luxCDABE operon; conditions: for RLU: Strain AH371

C[C@]12OC[C@H](O)[C@@]1(O)O[B-](O)(O)O2 [AI-2, (2S, 4S)-2-methyl-2,3,3,4-tetrahydroxytetrahydrofuran borate]
Relative dimers, Average of 111816 reps (CqsS; HCD): 0.8076 and 0.9392
CqsS Dimers (CqsS; HCD (OD600 = 2.0)): 120.316 and 41.5193 and 39.7812 and 190.837 and 226.59 and 73.4627 and 88.226 and 103.067
Relative dimers, Final experimental replicates (CqsS; HCD): 0.8076 and 0.9392 and 0.977 and 1.14 and 0.4129 and 0.3956
Relative dimers (CqsS, normalized to WT Ave) (CqsS; HCD): 0.7384 and 0.8768 and 0.8534 and 1.025 and 0.977 and 1.14 and 0.4129 and 0.3956
Relative dimers, Average of 111816 reps (CqsS; LCD): 1.105 and 0.8147
CqsS Dimers (CqsS; LCD (OD600 = 0.2)): 53.516 and 13.7214 and 12.1436 and 82.1482 and 72.8907 and 15.3978 and 28.2649 and 41.282
Relative dimers, Final experimental replicates (CqsS; LCD): 1.105 and 0.8147 and 1.157 and 1.5 and 0.8624 and 0.7633
Relative dimers (CqsS, normalized to WT Ave) (CqsS; LCD): 1.171 and 1.039 and 0.5746 and 1.055 and 1.157 and 1.5 and 0.8624 and 0.7633
CqsS protein levels (CqsS; ΔcqsA ΔluxS mutant, LCD and HCD): increased CqsS protein levels to nearly that present in the WT
RLU ([1]; OD600 0.0532): 1.35E+07 RLU
RLU ([1]; OD600 0.2928): 9.01E+07 RLU
RLU ([1]; OD600 0.826): 1.12E+09 RLU
RLU ([1]; OD600 1.094): 3.16E+09 RLU
RLU ([1]; OD600 1.626): 2.09E+10 RLU
RLU ([1]; OD600 2.281): 2.23E+10 RLU
QS response when cqsS is under the luxPQ promoter ([1]; S9B Fig): caused premature induction of QS
increase in hapA expression (hapA; LuxQ+ AI-2- strain (ΔcqsS ΔcqsR ΔvpsS ΔluxS)): 27 fold
increase in hapA expression (hapA; ΔcqsA ΔluxS strain, HCD): 4 fold
RLU relative to Average WT (qrr4; LuxS-CqsA- strain + autoinducer, Average WT 115335416.84): 29.34 and 29.68 and 31.98
RLU, average per biological replicate (Totals) (qrr4; LuxS-CqsA- strain + autoinducer, Rep 1-3): 3.38E+09 RLU and 3.42E+09 RLU and 3.69E+09 RLU
reduction of qrr4-luxCDABE expression (qrr4; saturating autoinducer, ΔcqsA ΔluxS mutant): 2 fold
Light production ([2]; LuxS-CqsA- +AI-2 1 μM, OD600 0.0275): 5854546 RLU
Light production ([2]; LuxS-CqsA- +AI-2 1 μM, OD600 0.0589): 5025467 RLU
Light production ([2]; LuxS-CqsA- +AI-2 1 μM, OD600 0.2147): 1280857 RLU
Light production ([2]; LuxS-CqsA- +AI-2 1 μM, OD600 0.4541): 1704470 RLU
Light production ([2]; LuxS-CqsA- +AI-2 1 μM, OD600 1.201): 1856786 RLU
Light production ([2]; LuxS-CqsA- +AI-2 1 μM, OD600 1.481): 34976370 RLU
Light production ([2]; LuxS-CqsA- +AI-2 1 μM, OD600 1.867): 25388320 RLU
Light production ([2]; LuxS-CqsA- +AI-2 1 μM, OD600 3.776): 12473520 RLU
Light production ([2]; LuxS-CqsA-, AI-2 1 μM, CAI-1 5 μM, OD600 0.005): 108432 RLU
RLU ([2]; agonist 0.0476837 nM): 2.35E+03 RLU and 4.30E+03 RLU and 4.28E+03 RLU
RLU ([2]; agonist 0.762939 nM): 2.47E+03 RLU and 4.79E+03 RLU and 4.30E+03 RLU
RLU ([2]; agonist 3.05176 nM): 2.44E+03 RLU and 2.42E+03 RLU and 2.17E+03 RLU
RLU ([2]; agonist 12.207 nM): 2.38E+03 RLU and 4.73E+03 RLU and 4.30E+03 RLU
RLU ([2]; agonist 48.8281 nM): 9.41E+03 RLU and 7.14E+03 RLU and 8.89E+03 RLU
RLU ([2]; agonist 195.312 nM): 2.21E+04 RLU and 3.23E+04 RLU and 2.62E+04 RLU
RLU ([2]; agonist 781.25 nM): 6.41E+04 RLU and 4.85E+04 RLU and 5.29E+04 RLU
RLU ([2]; agonist 3125 nM): 6.25E+04 RLU and 6.51E+04 RLU and 5.68E+04 RLU
RLU ([2]; agonist 12500 nM): 7.03E+04 RLU and 7.29E+04 RLU and 6.20E+04 RLU
increase in light production ([2]; saturating autoinducer, HCD, vs untreated ΔcqsA ΔluxS): 100 fold
